Test results taken from ChEMBL document CHEMBL5390205, “Acidonemycins A-C, Glycosylated Angucyclines with Antivirulence Activity Produced by the Acidic Culture of Streptomyces indonesiensis” (J Nat Prod, 2023).
The source made the active and inactive calls. The calls are words filed in the database; no cut-off is given here.

Tested on: Staphylococcus aureus
Assay: Antivirulence activity against methicillin-resistant Staphylococcus aureus USA300 LAC assessed as inhibition of phenol-soluble modulin alpha1-4 production incubated for 22 hrs by LC-MS analysis
Assay type: functional, organism-based
Details: dose 0-100 µg/ml

SMILES | Activity
C[C@@H]1CC(=O)c2c(ccc3c2C(=O)c2cccc(O[C@@H]4O[C@H](C(=O)O)[C@@H](O)[C@H](O)[C@H]4O)c2C3=O)C1 | Dose-Dependent Effect
COC(=O)[C@H]1O[C@@H](Oc2cccc3c2C(=O)c2ccc4c(c2C3=O)C(=O)C[C@@H](C)C4)[C@H](O)[C@@H](O)[C@@H]1O | Dose-Dependent Effect
COC(=O)[C@H]1O[C@@H](Oc2cccc3c2C(=O)O[C@H]3c2c(O)ccc3c2C(=O)C[C@@H](C)C3)[C@H](O)[C@@H](O)[C@@H]1O | inactive

Tested on: Staphylococcus aureus
Assay: Antivirulence activity against methicillin-resistant Staphylococcus aureus USA300 LAC assessed as inhibition of delta toxin production incubated for 22 hrs by LC-MS analysis
Assay type: functional, organism-based
Details: dose 0-100 µg/ml

SMILES | Activity
C[C@@H]1CC(=O)c2c(ccc3c2C(=O)c2cccc(O[C@@H]4O[C@H](C(=O)O)[C@@H](O)[C@H](O)[C@H]4O)c2C3=O)C1 | Dose-Dependent Effect
COC(=O)[C@H]1O[C@@H](Oc2cccc3c2C(=O)c2ccc4c(c2C3=O)C(=O)C[C@@H](C)C4)[C@H](O)[C@@H](O)[C@@H]1O | Dose-Dependent Effect
COC(=O)[C@H]1O[C@@H](Oc2cccc3c2C(=O)O[C@H]3c2c(O)ccc3c2C(=O)C[C@@H](C)C3)[C@H](O)[C@@H](O)[C@@H]1O | inactive

Tested on: Staphylococcus aureus
Assay: Antivirulence activity against methicillin-resistant Staphylococcus aureus USA300 LAC assessed as inhibition of biofilm formation incubated for 22 hrs by crystal violet staining based assay
Assay type: functional, organism-based
Details: dose 0-100 µg/ml

SMILES | Activity
C[C@@H]1CC(=O)c2c(ccc3c2C(=O)c2cccc(O[C@@H]4O[C@H](C(=O)O)[C@@H](O)[C@H](O)[C@H]4O)c2C3=O)C1 | Dose-Dependent Effect
COC(=O)[C@H]1O[C@@H](Oc2cccc3c2C(=O)c2ccc4c(c2C3=O)C(=O)C[C@@H](C)C4)[C@H](O)[C@@H](O)[C@@H]1O | Dose-Dependent Effect
COC(=O)[C@H]1O[C@@H](Oc2cccc3c2C(=O)O[C@H]3c2c(O)ccc3c2C(=O)C[C@@H](C)C3)[C@H](O)[C@@H](O)[C@@H]1O | inactive
